Data set [1] can be described thus: Caco-2 permeability assay (CacoReady kit). Format: in vitro ADME. Particulars: human, Caco-2, Caco-2 barrier, CacoReady kit; above 1×10^−6 cm/s classified as permeable. The protocol: Permeability coefficients (Papp values) were obtained from Caco-2 barrier studies predicting oral/intestinal bioavailability of the tested compounds. The assays were performed by using CacoReady™ ready-to-use kits from ReadyCell according to the manufacturers protocol.

Data set [2] has as its target T1, recombinant human transglutaminase 2 (Homo sapiens, UniProt P21980).
T1 construct: purchased Zedira T022
T1 sequence (P21980 1-687): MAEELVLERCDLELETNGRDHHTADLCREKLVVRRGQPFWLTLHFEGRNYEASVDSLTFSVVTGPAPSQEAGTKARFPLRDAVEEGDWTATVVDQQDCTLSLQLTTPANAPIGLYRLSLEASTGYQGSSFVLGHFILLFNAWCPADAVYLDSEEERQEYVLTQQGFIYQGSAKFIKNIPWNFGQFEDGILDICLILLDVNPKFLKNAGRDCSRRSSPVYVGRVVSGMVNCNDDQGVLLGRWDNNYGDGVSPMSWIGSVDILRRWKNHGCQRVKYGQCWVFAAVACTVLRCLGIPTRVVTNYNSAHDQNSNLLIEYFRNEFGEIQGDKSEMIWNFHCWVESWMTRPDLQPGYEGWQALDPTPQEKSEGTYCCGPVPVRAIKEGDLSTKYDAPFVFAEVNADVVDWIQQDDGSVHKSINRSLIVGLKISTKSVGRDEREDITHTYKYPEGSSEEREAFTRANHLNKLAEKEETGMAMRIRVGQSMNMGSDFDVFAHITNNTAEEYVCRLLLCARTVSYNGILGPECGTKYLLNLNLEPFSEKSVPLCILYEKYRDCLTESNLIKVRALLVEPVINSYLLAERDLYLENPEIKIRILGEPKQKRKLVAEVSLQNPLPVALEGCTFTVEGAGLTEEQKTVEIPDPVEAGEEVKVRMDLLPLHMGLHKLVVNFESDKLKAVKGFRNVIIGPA
The experiment in a line: Transglutaminase assay (DCC-assay): incorporation of dansylcadaverine into dimethylcasein. Format: biochemical. The settings on record: for IC50: recombinant human TG2 10 nM, dansylcadaverine incorporation into dimethylcasein, read-out: IC50 TG2. The protocol: To illustrate the advantage of branched alkyl moieties over aromatic moieties, we refer to reference compounds Ref. 2 (ZED1227, U.S. Pat. No. 9,434,763 B2) and Ref. 3 (A8, ZED1047). Inhibition data were determined using the classical fluorescent transamidation assay (dansylcadaverine incorporation into methylated casein, DCC-assay) as described [Buchold, C.; Hils, M.; Gerlach, U.; Weber, J.; Pelzer, C.; Heil, A.; Aeschlimann, D.; Pasternack, R. Features of ZED1227: The First-In-Class Tissue Transglutaminase Inhibitor Undergoing Clinical Evaluation for the Treatment of Celiac Disease. Cells 2022, 11, 1667. https://doi.org/10.3390/cells11101667]. Casein is one of the best known high molecular weight (24 kDa) protein substrates for transglutaminases. Please note, the IC50 value of Ref. 3 (A8) published in U.S. Pat. No. 9,434,763 B2 cannot be compared to the present data, relying on a fluorogenic isopeptidase assay.
To this extent, inhibition data were determined using the classical fluorescent transamidation assay (dansylcadaverine incorporation into methylated casein, DCC-assay) as described in Büchold et al. [Büchold, C.; Hils, M.; Gerlach, U.; Weber, J.; Pelzer, C.; Heil, A.; Aeschlimann, D.; Pasternack, R. Features of ZED1227: The First-In-Class Tissue Transglutaminase Inhibitor Undergoing Clinical Evaluation for the Treatment of Celiac Disease. Cells 2022, 11, 1667. https://doi.org/10.3390/cells11101667]. Casein is one of the best known high molecular weight (24 kDa) protein substrates for transglutaminases. Inhibition data of the inventive compounds was compared with inhibition of compounds disclosed in U.S. Pat. No. 9,434,763 B2, particularly, compound A8, which is denoted herein as Reference 3. It is noteworthy that the IC50 values of compounds A8 published in U.S. Pat. No. 9,434,763 B2 and E16 from U.S. Pat. No. 11,072,634 B2 cannot be compared to the present data, relying on a fluorogenic isopeptidase assay.
For the determination of potency of inhibitors against tissue transglutaminase, the incorporation of dansylcadaverine into dimethylcasein (Zedira product T036, Lorand et al., Anal Biochem, 1971, 44:221-31) was measured using recombinant human transglutaminase 2 (Zedira Product T022).
The tissue transglutaminase is diluted in buffer (50 mM Tris-HCl, 7.5 mM CaCl2), 150 mM NaCl, pH=7.4). The final concentration of TG2 in the assay is 10 nM.
A 10 mM inhibitor stock solution is prepared in DMSO, and from this a serial 1:2-fold dilution series is prepared also in DMSO. Each of the initial dilutions is subsequently diluted 1:50-fold with buffer (50 mM Tris-HCl, 7.5 mM CaCl2), 150 mM NaCl, pH=7.4) to yield the final working dilutions containing 2% (v/v) DMSO.
15 μl of inhibitor working dilution are added per well of a 96 well microtiter plate. As control, 15 μl of a 2% (v/v) DMSO solution prepared using the buffer mentioned above are added per well.
Immediately before starting the assay, 600 μl transglutaminase working solution are added to 11.4 ml assay buffer (50 mM Tris-HCl, 10 mM CaCl2), 10 mM glutathione, 2.5% glycerol, 16.7 µM dansylcadaverine, 4 uM N,N-dimethylcasein, 200 mM NaCl, pH=8.0). 285 μl of this reaction mix are added per well containing the inhibitor.
Increase in fluorescence is measured using λex=330 nm and λem=500 nm at 37° C. for 30 min. A slope of the increase in fluorescence between 20 and 30 min is calculated for determination of the IC50 value (inhibitor concentration at which 50% of the initial activity is blocked).
Analysis of enzymatic activity is performed by calculation of the slope of an increase in fluorescence intensity. IC50 values are calculated by plotting the enzymatic activity (as percentage from control containing 2% DMSO instead of inhibitor) against the inhibitor concentration. IC50 is defined as the inhibitor concentration blocking 50% of initial enzyme activity.

The nature of data set [3]: logD by shake flask method (octanol / PBS pH 7.4, HPLC). The settings on record: octanol / PBS pH 7.4, shake flask. Format: physicochemical. The protocol:
In order to classify the inventive compounds according to their lipophilicity, LogD values (distribution coefficient) were determined by means of the well-established shake flask method, measuring the partition of a compound between an octanol and phosphate-buffered saline (PBS, pH 7.4) by HPLC.
The LogD is pH dependent and is a “predictor” for in-vivo properties. LogD combines lipophilicity (intrinsic structural property of the molecule, logP) and ionizability (pKa). Compounds with a moderate lipophilicity (LogD values from 0 to 3) are usually advantaged for oral absorption, being in balance between solubility and permeability. However, sophisticated formulation of a compound might improve oral bioavailability for highly lipophilic compounds.

Molecules are shown by their SMILES.

For orientation: Papp means a coefficient for how fast a substance crosses the barrier. Broadly, the IC50 is the concentration that inhibits the measured activity by half. The logD is the decadic logarithm of the distribution of all forms, ionised or not, between an organic phase and buffer at a given pH.

In turn, `CNC(=O)C(=O)CC[C@H](NC(=O)c1cc2ccccc2s1)C(=O)Nc1cccn(CC(=O)NC2C3CC4CC(C3)CC2C4)c1=O` (stereo partly drawn) had a Papp in data set [1] of 1 to 10 ×10⁻⁶ cm/s. Moreover, in data set [2], the IC50 is below 0.04 µM. Further, in data set [3], the logD fell in the range of 3 to 5.
In the same order, the values of `CNC(=O)C(=O)CC[C@H](NC(=O)c1cc2cc(Br)ccc2s1)C(=O)Nc1cccn(CC(=O)NC2C3CC4CC(C3)CC2C4)c1=O` (stereo partly drawn) are 1 to 10 ×10⁻⁶ cm/s, below 0.04 µM and 3 to 5.
In the same order, the values of `CNC(=O)C(=O)CC[C@H](NC(=O)c1oc2ccccc2c1C)C(=O)Nc1cccn(CC(=O)NC23CC4CC5C2C[C@@H]2C[C@H]5C(C4)[C@H]3C2)c1=O` (stereo in doubt) [II-104, (S)-N1-(1-(2-(diamantane-1-amino)-2-oxoethyl)-2-oxo-1,2-dihydropyridin-3-yl)-N6-methyl-2-(3-methylbenzofuran-2-carboxamido)-5-oxohexanediamide] are 1 to 10 ×10⁻⁶ cm/s, 0.04 to 0.4 µM and 1 to 3.
In the case of `CNC(=O)C(=O)CC[C@H](NC(=O)c1cc2ccccc2o1)C(=O)Nc1cccn(CC(=O)NC2C3CC4CC(C3)CC2C4)c1=O` (stereo partly drawn) [II-2, (S)-2-(benzofuran-2-carboxamido)-N1-(1-(2-(2-adamantylamino)-2-oxoethyl)-2-oxo-1,2-dihydropyridin-3-yl)-N6-methyl-5-oxohexanediamide], in data set [1], the Papp lay within 1 to 10 ×10⁻⁶ cm/s. Moreover, in data set [2], the IC50 was below 0.04 µM. In data set [3], this compound showed a logD of 1 to 3.
In turn, `CNC(=O)C(=O)CC[C@H](NC(=O)c1oc2ccccc2c1Cl)C(=O)Nc1cccn(CC(=O)NC2C3CC4CC(C3)CC2C4)c1=O` (stereo partly drawn) [II-4, (S)-2-(3-chlorobenzofuran-2-carboxamido)-N1-(1-(2-(2-adamantylamino)-2-oxoethyl)-2-oxo-1,2-dihydropyridin-3-yl)-N6-methyl-5-oxohexanediamide] returned a Papp in data set [1] of 1 to 10 ×10⁻⁶ cm/s. Moreover, in data set [2], the IC50 was below 0.04 µM. Also, the logD in data set [3] lay within 1 to 3.
As for `CNC(=O)C(=O)CC[C@H](NC(=O)c1cc2c(Br)cccc2o1)C(=O)Nc1cccn(CC(=O)NC2C3CC4CC(C3)CC2C4)c1=O` (stereo partly drawn) [II-5, (S)-2-(4-bromobenzofuran-2-carboxamido)-N1-(1-(2-(2-adamantylamino)-2-oxoethyl)-2-oxo-1,2-dihydropyridin-3-yl)-N6-methyl-5-oxohexanediamide], the Papp in data set [1] was 1 to 10 ×10⁻⁶ cm/s. The IC50 in data set [2] is below 0.04 µM. The compound further yielded a logD in data set [3] of 3 to 5.
In the same order, the values of `CNC(=O)C(=O)CC[C@H](NC(=O)c1cc2ccccc2[nH]1)C(=O)Nc1cccn(CC(=O)NC2C3CC4CC(C3)CC2C4)c1=O` (stereo partly drawn) [II-9, (S)-2-(1H-indole-2-carboxamido)-N1-(1-(2-(2-adamantylamino)-2-oxoethyl)-2-oxo-1,2-dihydropyridin-3-yl)-N6-methyl-5-oxohexanediamide] are 1 to 10 ×10⁻⁶ cm/s, below 0.04 µM and 1 to 3.
On the same counts, the results for `CNC(=O)C(=O)CC[C@H](NC(=O)c1cc2c(F)c(F)ccc2[nH]1)C(=O)Nc1cccn(CC(=O)NC2C3CC4CC(C3)CC2C4)c1=O` (stereo partly drawn) [II-10, (S)-2-(4,5-difluoro-1H-indole-2-carboxamido)-N1-(1-(2-(2-adamantylamino)-2-oxoethyl)-2-oxo-1,2-dihydropyridin-3-yl)-N6-methyl-5-oxohexanediamide] are below 1 ×10⁻⁶ cm/s, below 0.04 µM and 3 to 5.
In the same order, the values of `CNC(=O)C(=O)CC[C@H](NC(=O)c1[nH]c2ccccc2c1C)C(=O)Nc1cccn(CC(=O)NC2C3CC4CC(C3)CC2C4)c1=O` (stereo partly drawn) [II-11, (S)-N1-(1-(2-(2-adamantylamino)-2-oxoethyl)-2-oxo-1,2-dihydropyridin-3-yl)-N6-methyl-2-(3-methyl-1H-indole-2-carboxamido)-5-oxohexanediamide] are 1 to 10 ×10⁻⁶ cm/s, below 0.04 µM and 1 to 3.
The compound `CNC(=O)C(=O)CC[C@H](NC(=O)c1nc2ccccc2[nH]1)C(=O)Nc1cccn(CC(=O)NC2C3CC4CC(C3)CC2C4)c1=O` (stereo partly drawn) [II-12, (S)-2-(1H-benzo[d]imidazole-2-carboxamido)-N1-(1-(2-(2-adamantylamino)-2-oxoethyl)-2-oxo-1,2-dihydropyridin-3-yl)-N6-methyl-5-oxohexanediamide] returned a Papp in data set [1] below 1 ×10⁻⁶ cm/s. The IC50 in data set [2] lay within 0.04 to 0.4 µM. Further, the logD in data set [3] is 3 to 5.
On the same counts, the results for `CNC(=O)C(=O)CC[C@H](NC(=O)C1Cc2ccccc2C1)C(=O)Nc1cccn(CC(=O)NC2C3CC4CC(C3)CC2C4)c1=O` (stereo partly drawn) [II-13, (S)-2-(2,3-dihydro-1H-indene-2-carboxamido)-N1-(1-(2-(2-adamantylamino)-2-oxoethyl)-2-oxo-1,2-dihydropyridin-3-yl)-N6-methyl-5-oxohexanediamide] are 1 to 10 ×10⁻⁶ cm/s, below 0.04 µM and 1 to 3.
Consider `CNC(=O)C(=O)CC[C@H](NC(=O)c1cn[nH]n1)C(=O)Nc1cccn(CC(=O)NC2C3CC4CC(C3)CC2C4)c1=O` (stereo partly drawn) [II-132, (S)-N1-(1-(2-(2-adamantylamino)-2-oxoethyl)-2-oxo-1,2-dihydropyridin-3-yl)-N6-methyl-5-oxo-2-(1H-1,2,3-triazole-4-carboxamido)hexanediamide], for which the IC50 in data set [2] lay in the range of 0.4 to 2.5 µM.
Take `CCC(CC)CNC(=O)Cn1cccc(NC(=O)[C@H](CC/C=C/C(=O)OC)NC(=O)c2cncn2C)c1=O` [Ref. 2, reference compound]: the “fold more potent compared to Ref. 3” value in data set [2] (DCC-assay, IC50 ratio versus Ref. 3 (A8)) stood at 80 fold. For the same compound, the IC50 in data set [2] was in the range of 0.04 to 0.4 µM.

The values above are taken from US20240383856A1 (Zedira GmbH, priority 2021, published 2024).
